Species on record: Rattus norvegicus
Experiment: Open TG-GATES - Regimen: Daily Repeat
Format: toxicity, organism-based, Sprague-Dawley
Set-up: regimen Daily Repeat, gender Male, age 6 weeks
Conditions: in vivo, po, 100 mg/kg, route gavage, dose level Low; for APTT / Bas / Eos / Fbg / Hb / Ht / Lym / MCHC / MCV / Mono / Neu / PT / Plat / RBC / Ret / WBC: tissue Blood; for KIDNEY_L / KIDNEY_R / KIDNEY_TOTAL: tissue Kidney; for LIVER: tissue Liver; for ALP / ALT / AST / BUN / CRE / Ca / Cl / DBIL / GLC / IP / K / LDH / Na / PL / RALB / TBIL / TG / TP / gamma-GTP: tissue Plasma

CN(C)C(=N)N=C(N)N [METFORMIN]
TERMINAL_BW (72 h, time 3 day): 222.9 g | APTT (72 h, time 3 day): 16.7 s | Bas (72 h, time 3 day): 0.2% | Eos (72 h, time 3 day): 0.6% | Fbg (72 h, time 3 day): 255 mg/dL | Hb (72 h, time 3 day): 13.3 g/dL | Ht (72 h, time 3 day): 39.3% | Lym (72 h, time 3 day): 79% | MCHC (72 h, time 3 day): 33.9% | MCV (72 h, time 3 day): 64.1 fL | Mono (72 h, time 3 day): 3% | Neu (72 h, time 3 day): 16.6% | PT (72 h, time 3 day): 12.6 s | Plat (72 h, time 3 day): 114.7 x10_4/uL | RBC (72 h, time 3 day): 612.6 x10_4/ul | Ret (72 h, time 3 day): 6.7% | WBC (72 h, time 3 day): 119.8 x10_2/uL | KIDNEY_L (72 h, time 3 day): 0.9 g | KIDNEY_R (72 h, time 3 day): 0.9 g | KIDNEY_TOTAL (72 h, time 3 day): 1.9 g | LIVER (72 h, time 3 day): 10.6 g | ALP (72 h, time 3 day): 1574.6 IU/L | ALT (72 h, time 3 day): 56.2 IU/L | AST (72 h, time 3 day): 78.6 IU/L | BUN (72 h, time 3 day): 15 mg/dL | CRE (72 h, time 3 day): 0.2 mg/dL | Ca (72 h, time 3 day): 11 mg/dL | Cl (72 h, time 3 day): 105.6 meq/L | DBIL (72 h, time 3 day): 0.012 mg/dL | GLC (72 h, time 3 day): 173.2 mg/dL | IP (72 h, time 3 day): 8.3 mg/dL | K (72 h, time 3 day): 4 meq/L | LDH (72 h, time 3 day): 80.4 IU/L | Na (72 h, time 3 day): 141.8 meq/L | PL (72 h, time 3 day): 141.6 mg/dL | RALB (72 h, time 3 day): 2.6 g/dL | TBIL (72 h, time 3 day): 0.03 mg/dL | TG (72 h, time 3 day): 72.8 mg/dL | TP (72 h, time 3 day): 5.5 g/dL | gamma-GTP (72 h, time 3 day): 1 IU/L | TERMINAL_BW ([…], time 7 day): 255.8 g | TERMINAL_BW ([…], time 14 day): 319.6 g | TERMINAL_BW ([…], time 28 day): 415.8 g | APTT ([…], time 7 day): 18.8 s | Bas ([…], time 7 day): 0% | Eos ([…], time 7 day): 1% | Fbg ([…], time 7 day): 277.8 mg/dL | Hb ([…], time 7 day): 13.6 g/dL | Ht ([…], time 7 day): 40.1% | Lym ([…], time 7 day): 77.8% | MCHC ([…], time 7 day): 33.9% | MCV ([…], time 7 day): 63 fL | Mono ([…], time 7 day): 3.4% | Neu ([…], time 7 day): 17.8% | PT ([…], time 7 day): 12.1 s | Plat ([…], time 7 day): 130 x10_4/uL | RBC ([…], time 7 day): 638 x10_4/ul | Ret ([…], time 7 day): 5.1% | WBC ([…], time 7 day): 97.2 x10_2/uL | APTT ([…], time 14 day): 17.4 s | Bas ([…], time 14 day): 0% | Eos ([…], time 14 day): 1.2% | Fbg ([…], time 14 day): 255.2 mg/dL | Hb ([…], time 14 day): 13.9 g/dL | Ht ([…], time 14 day): 40.1% | Lym ([…], time 14 day): 77.6% | MCHC ([…], time 14 day): 34.6% | MCV ([…], time 14 day): 60.5 fL | Mono ([…], time 14 day): 2.8% | Neu ([…], time 14 day): 17.6% | PT ([…], time 14 day): 12.2 s | Plat ([…], time 14 day): 122.5 x10_4/uL | RBC ([…], time 14 day): 662.2 x10_4/ul | Ret ([…], time 14 day): 5% | WBC ([…], time 14 day): 109.5 x10_2/uL | APTT ([…], time 28 day): 17.7 s | Bas ([…], time 28 day): 0.2% | Eos ([…], time 28 day): 1% | Fbg ([…], time 28 day): 259.2 mg/dL | Hb ([…], time 28 day): 15 g/dL | Ht ([…], time 28 day): 43% | Lym ([…], time 28 day): 76.6% | MCHC ([…], time 28 day): 34.8% | MCV ([…], time 28 day): 56.3 fL | Mono ([…], time 28 day): 3% | Neu ([…], time 28 day): 18.6% | PT ([…], time 28 day): 11.9 s | Plat ([…], time 28 day): 100.3 x10_4/uL | RBC ([…], time 28 day): 764.2 x10_4/ul | Ret ([…], time 28 day): 2.6% | WBC ([…], time 28 day): 134 x10_2/uL | KIDNEY_L ([…], time 7 day): 1 g | KIDNEY_R ([…], time 7 day): 1 g | KIDNEY_TOTAL ([…], time 7 day): 2.1 g | KIDNEY_L ([…], time 14 day): 1.3 g | KIDNEY_R ([…], time 14 day): 1.3 g | KIDNEY_TOTAL ([…], time 14 day): 2.6 g | KIDNEY_L ([…], time 28 day): 1.5 g | KIDNEY_R ([…], time 28 day): 1.5 g | KIDNEY_TOTAL ([…], time 28 day): 3 g | LIVER ([…], time 7 day): 12.7 g | LIVER ([…], time 14 day): 15.1 g | LIVER ([…], time 28 day): 17.9 g | ALP ([…], time 7 day): 1216.2 IU/L | ALT ([…], time 7 day): 59.4 IU/L | AST ([…], time 7 day): 80.2 IU/L | BUN ([…], time 7 day): 15.2 mg/dL | CRE ([…], time 7 day): 0.2 mg/dL | Ca ([…], time 7 day): 10.8 mg/dL | Cl ([…], time 7 day): 105.8 meq/L | DBIL ([…], time 7 day): 0.012 mg/dL | GLC ([…], time 7 day): 189.8 mg/dL | IP ([…], time 7 day): 7.9 mg/dL | K ([…], time 7 day): 4.1 meq/L | LDH ([…], time 7 day): 69.6 IU/L | Na ([…], time 7 day): 142 meq/L | PL ([…], time 7 day): 144 mg/dL | RALB ([…], time 7 day): 2.6 g/dL | TBIL ([…], time 7 day): 0.028 mg/dL | TG ([…], time 7 day): 96.4 mg/dL | TP ([…], time 7 day): 5.7 g/dL | gamma-GTP ([…], time 7 day): 0.8 IU/L | ALP ([…], time 14 day): 1413 IU/L | ALT ([…], time 14 day): 51.8 IU/L | AST ([…], time 14 day): 70.6 IU/L | BUN ([…], time 14 day): 16.2 mg/dL | CRE ([…], time 14 day): 0.2 mg/dL | Ca ([…], time 14 day): 11 mg/dL | Cl ([…], time 14 day): 104 meq/L | DBIL ([…], time 14 day): 0.014 mg/dL | GLC ([…], time 14 day): 182.4 mg/dL | IP ([…], time 14 day): 7.2 mg/dL | K ([…], time 14 day): 3.9 meq/L | LDH ([…], time 14 day): 78.6 IU/L | Na ([…], time 14 day): 142.6 meq/L | PL ([…], time 14 day): 161 mg/dL | RALB ([…], time 14 day): 2.7 g/dL | TBIL ([…], time 14 day): 0.03 mg/dL | TG ([…], time 14 day): 116 mg/dL | TP ([…], time 14 day): 6 g/dL | gamma-GTP ([…], time 14 day): 1.2 IU/L | ALP ([…], time 28 day): 1072.4 IU/L | ALT ([…], time 28 day): 46.4 IU/L | AST ([…], time 28 day): 67.8 IU/L | BUN ([…], time 28 day): 17.4 mg/dL | CRE ([…], time 28 day): 0.2 mg/dL | Ca ([…], time 28 day): 11.2 mg/dL | Cl ([…], time 28 day): 104.6 meq/L | DBIL ([…], time 28 day): 0.014 mg/dL | GLC ([…], time 28 day): 184.2 mg/dL | IP ([…], time 28 day): 6.7 mg/dL | K ([…], time 28 day): 3.9 meq/L | LDH ([…], time 28 day): 56.8 IU/L | Na ([…], time 28 day): 145.6 meq/L | PL ([…], time 28 day): 165.4 mg/dL | RALB ([…], time 28 day): 2.8 g/dL | TBIL ([…], time 28 day): 0.04 mg/dL | TG ([…], time 28 day): 183.8 mg/dL | TP ([…], time 28 day): 6.3 g/dL | gamma-GTP ([…], time 28 day): 1 IU/L

From ChEMBL document CHEMBL3885861, “Open TG-GATES”
